Laboratory results published in patent US10525069B2, “Treatment of urinary tract infection” (BIOMEDICALS SWEDEN AB, priority 2014, dated 2020).

Tested on: UTI
Assay: Clinical course of UTI (occurrence, relapse, symptoms) in treated women
Assay type: in vivo, human
Settings: Example 4: person, antibiotic received twice, before treatment with the composition
Procedure: One wheelchair-bound person, with recurrent UTI (UTI every week) was treated according to an embodiment of the invention. Prior to the treatment, the urine of the person was tested using bacteria test strips (NITRISTIC®, RAERAD Products, Sweden) following the instructions from the manufacturer. […] The person was given a composition with 1 g calcium carbonate (pH-KALK, pH Balans AB, Sweden) together with 2 g D-mannose (DM, BECKMAN-KENKO GMBH, Germany) or 1 g citric acid (SANTA MARIA AB, Sweden) together with 2 g D-mannose (DM, BECKMAN-KENKO GMBH, Germany). The compositions were taken in an alternating administration pattern 5 times per day (see Table 2 for details). The initial treatment lasted for 4 days. […] After the initial treatment, the person continued with the treatment to prevent UTI according to Table 2 alternating pH three times a day for five months. […] After discontinuing the treatment, the person relapsed with UTI within 3 weeks.
Prior to the treatment, the urine was tested using bacteria test strips (NITRISTIC®, RAERAD Products, Sweden) following the instructions from the manufacturer.
The person was then treated according to an embodiment of the invention (see Table 4 for details). […] Furthermore the bacteria test strips were negative.

CC(C)(C)C(=O)OCOC(=O)[C@@H]1N2C(=O)[C@@H](/N=C/N3CCCCCC3)[C@H]2SC1(C)C [SELEXID]
result of antibiotic treatment against UTI: no apparent results
